Laboratory results from patent publication US9675592B2, “Methods and compositions for bacteria infections” (priority 2013, dated 2017).
Like-named read-outs stand apart in the source and are kept apart here.

How the values were obtained:
[1] = system: vraSR promoter (Pvra-lux reporter in strain 923); experiment: Primary screen, relative luminescence (vraSR expression)
[2] = system: test strain 923 pPvra-lux (USA300 MRSA); experiment: Primary screen, relative growth in presence of oxacillin; conditions: compound 10 μM with oxacillin 2 μg/mL, absorbance 24 h, <0.50 = dead cells = hit
multiple strains of MRSA = experiment: MICs (minimal inhibitory concentrations) vs multiple strains of MRSA; type: cell-based, Staphylococcus aureus
[3] = system: test strain 923 pPvra-lux; experiment: Secondary screen / synergy confirmation of Top 40, relative growth with oxacillin; type: cell-based, Staphylococcus aureus; conditions: Top 40 library, compound at maximum non-GI conc
Description: In the secondary screen each microtiter plate contained either cells in TSB alone (16 replicates), cells with oxacillin (2 μg/mL, 31 replicates), or cells with test compound and oxacillin (2 μg/mL, 49 wells). Each compound was assayed in four separate biological replicates.
Synergy Confirmation of “Top 40”. […]

[4] = system: vraSR promoter (Pvra-lux reporter in strain 923); type: cell-based, Staphylococcus aureus; conditions: for RL Ox avg: Top 40 library, with oxacillin, compound at maximum non-GI conc; for vraSR repressing synergist: overall class from syn and rep
Description: In the secondary screen each microtiter plate contained either cells in TSB alone (16 replicates), cells with oxacillin (2 μg/mL, 31 replicates), or cells with test compound and oxacillin (2 μg/mL, 49 wells). Each compound was assayed in four separate biological replicates. […]

[5] = system: test strain (923 pPvra-lux); experiment: Growth inhibition by compound alone (maximum non-growth-inhibitory concentration); type: cell-based, Staphylococcus aureus; conditions: compound alone; maximum concentration where it did NOT inhibit growth
[6] = primary screen, compound 10 μM with oxacillin 2 μg/mL, <0.50 = vraSR repressed = hit
[7] = isolate 923, SCCmec IV, ST 8, compound at 4 mg/L
[8] = isolate 1176, SCCmec II, ST 231, compound at 4 mg/L
[9] = isolate 2169, SCCmec IV, ST 72, compound at 4 mg/L
[10] = isolate 8004-01, SCCmec III, ST 239, compound at 4 mg/L
[11] = isolate 8010-01, SCCmec IV, ST 8, compound at 4 mg/L
[12] = isolate 8227-01, SCCmec IV, ST 87, compound at 4 mg/L
[13] = isolate 11095, SCCmec II, ST 105, compound at 4 mg/L
[14] = isolate 13113, SCCmec II, ST 5, compound at 4 mg/L
[15] = isolate 13354, SCCmec IV, ST 5, compound at 4 mg/L
[16] = isolate 14315, SCCmec IV, ST 1, compound at 4 mg/L
[17] = isolate Q2461, SCCmec VT, ST 59, compound at 4 mg/L
[18] = isolate 923, SCCmec IV, ST 8, compound at 2 mg/L
[19] = isolate 1176, SCCmec II, ST 231, compound at 2 mg/L
[20] = isolate 2169, SCCmec IV, ST 72, compound at 2 mg/L
[21] = isolate 8004-01, SCCmec III, ST 239, compound at 2 mg/L
[22] = isolate 8010-01, SCCmec IV, ST 8, compound at 2 mg/L
[23] = isolate 8227-01, SCCmec IV, ST 87, compound at 2 mg/L
[24] = isolate 11095, SCCmec II, ST 105, compound at 2 mg/L
[25] = isolate 13113, SCCmec II, ST 5, compound at 2 mg/L
[26] = isolate 13354, SCCmec IV, ST 5, compound at 2 mg/L
[27] = isolate 14315, SCCmec IV, ST 1, compound at 2 mg/L
[28] = isolate Q2461, SCCmec VT, ST 59, compound at 2 mg/L

Row | Compound | RL avg (relative luminescence) [1, 6] | RG avg (relative growth) [2] | RG Ox avg [3] | RL Ox avg [4] | vraSR repressing synergist [4] | maximum non-GI conc [5] [µg/mL] | also measured
1 | Oc1ccc(C2(c3cccc(Br)c3)CCCCC2)cc1 [F0020-1560] | −0.01 | 0.02 | 0.68 | 0.17 | 2. possible | 40 | Ox MIC in presence of compound (multiple strains of MRSA; isolate 923, SCCmec IV, ST 8, compound at 1 mg/L): 1 µg/mL; Ox MIC in presence of compound (multiple strains of MRSA; isolate 1176, SCCmec II, ST 231, compound at 1 mg/L): <0.5 µg/mL; Ox MIC in presence of compound (multiple strains of MRSA; isolate 2169, SCCmec IV, ST 72, compound at 1 mg/L): 1 µg/mL; Ox MIC in presence of compound (multiple strains of MRSA; isolate 8004-01, SCCmec III, ST 239, compound at 1 mg/L): <4 µg/mL; Ox MIC in presence of compound (multiple strains of MRSA; isolate 8010-01, SCCmec IV, ST 8, compound at 1 mg/L): 1 µg/mL; Ox MIC in presence of compound (multiple strains of MRSA; isolate 8227-01, SCCmec IV, ST 87, compound at 1 mg/L): 0.25 µg/mL; Ox MIC in presence of compound (multiple strains of MRSA; isolate 11095, SCCmec II, ST 105, compound at 1 mg/L): <2 µg/mL; Ox MIC in presence of compound (multiple strains of MRSA; isolate 13113, SCCmec II, ST 5, compound at 1 mg/L): <0.13 µg/mL; Ox MIC in presence of compound (multiple strains of MRSA; isolate 13354, SCCmec IV, ST 5, compound at 1 mg/L): <0.13 µg/mL; Ox MIC in presence of compound (multiple strains of MRSA; isolate 14315, SCCmec IV, ST 1, compound at 1 mg/L): <0.5 µg/mL; Ox MIC in presence of compound (multiple strains of MRSA; isolate Q2461, SCCmec VT, ST 59, compound at 1 mg/L): 4 µg/mL
2 | Cc1ccc(S(=O)(=O)Nc2ccccc2C(=O)Nc2nc3c(C)ccc(C)c3s2)cc1 [F1813-0712] | – | −0.01 | 0.71 | 0.20 | 2. possible | 400 | RL avg (relative luminescence) [1]: 0.00; Ox MIC in presence of compound (multiple strains of MRSA; [7]): 4 µg/mL; Ox MIC in presence of compound (multiple strains of MRSA; [8]): 16 µg/mL; Ox MIC in presence of compound (multiple strains of MRSA; [9]): 8 µg/mL; Ox MIC in presence of compound (multiple strains of MRSA; [10]): 512 µg/mL; Ox MIC in presence of compound (multiple strains of MRSA; [11]): 16 µg/mL; Ox MIC in presence of compound (multiple strains of MRSA; [12]): 0.5 µg/mL; Ox MIC in presence of compound (multiple strains of MRSA; [13]): 256 µg/mL; Ox MIC in presence of compound (multiple strains of MRSA; [14]): 16 µg/mL; Ox MIC in presence of compound (multiple strains of MRSA; [15]): 8 µg/mL; Ox MIC in presence of compound (multiple strains of MRSA; [16]): 16 µg/mL; Ox MIC in presence of compound (multiple strains of MRSA; [17]): 16 µg/mL
3 | CC(C)(C)c1csc(NC(=O)c2cccc(NS(=O)(=O)c3ccc(F)cc3)c2)n1 [F2619-0556] | 0.52 | 0.25 | 0.01 | 0.28 | 1. confirmed | 400 | Ox MIC in presence of compound (multiple strains of MRSA; [7]): <0.25 µg/mL; Ox MIC in presence of compound (multiple strains of MRSA; [8]): <0.5 µg/mL; Ox MIC in presence of compound (multiple strains of MRSA; [9]): <0.25 µg/mL; Ox MIC in presence of compound (multiple strains of MRSA; [10]): <4 µg/mL; Ox MIC in presence of compound (multiple strains of MRSA; [11]): <0.25 µg/mL; Ox MIC in presence of compound (multiple strains of MRSA; [12]): <0.06 µg/mL; Ox MIC in presence of compound (multiple strains of MRSA; [13]): 128 µg/mL; Ox MIC in presence of compound (multiple strains of MRSA; [14]): <0.13 µg/mL; Ox MIC in presence of compound (multiple strains of MRSA; [15]): <0.13 µg/mL; Ox MIC in presence of compound (multiple strains of MRSA; [16]): <0.5 µg/mL; Ox MIC in presence of compound (multiple strains of MRSA; [17]): 1 µg/mL
4 | Fc1cccc(Nc2nc(Nc3ccc(F)c(Cl)c3)nc(N3CCOCC3)n2)c1 [F2703-0396] | 0.19 | 0.06 | 0.01 | 0.34 | 1. confirmed | 400 | Ox MIC in presence of compound (multiple strains of MRSA; [18]): <0.25 µg/mL; Ox MIC in presence of compound (multiple strains of MRSA; [19]): <0.5 µg/mL; Ox MIC in presence of compound (multiple strains of MRSA; [20]): <0.25 µg/mL; Ox MIC in presence of compound (multiple strains of MRSA; [21]): 64 µg/mL; Ox MIC in presence of compound (multiple strains of MRSA; [22]): <0.25 µg/mL; Ox MIC in presence of compound (multiple strains of MRSA; [23]): <0.06 µg/mL; Ox MIC in presence of compound (multiple strains of MRSA; [24]): <2 µg/mL; Ox MIC in presence of compound (multiple strains of MRSA; [25]): <0.13 µg/mL; Ox MIC in presence of compound (multiple strains of MRSA; [26]): <0.13 µg/mL; Ox MIC in presence of compound (multiple strains of MRSA; [27]): <0.5 µg/mL; Ox MIC in presence of compound (multiple strains of MRSA; [28]): <0.13 µg/mL
5 | CC(=O)Nc1ccc(Nc2cc(C(C)(C)C)nc3c(-c4ccccc4)c(C)nn23)cc1 [F3348-0030] | 0.12 | 0.05 | 0.01 | 0.05 | 1. confirmed | 400 | –
6 | CN(C)CCCNc1cc(C(C)(C)C)nc2c(-c3ccc(Cl)cc3)cnn12 [F3348-0373] | 0.41 | 0.05 | 0.99 | 0.80 | 3. no effect | 40 | –
7 | CC(=O)Nc1ccc(Nc2cc(C(C)C)nc3c(-c4ccccc4)cnn23)cc1 [F3348-0533] | 0.01 | 0.02 | 0.02 | 0.10 | 1. confirmed | 400 | –
8 | O=S(=O)(Nc1cccc(-c2nc3ccccc3s2)c1)c1ccc(F)c(Cl)c1 [F3394-0078] | 0.26 | 0.26 | 1.24 | 0.41 | 3. no effect | 40 | –
9 | O=C(Nc1cccc(C(F)(F)F)c1)N1CCN(c2ccc3nncn3n2)CC1 [F5123-0084] | −0.08 | 0.02 | 1.08 | 0.67 | 3. no effect | 40 | –
10 | O=C(Nc1cccc(C(F)(F)F)c1)N1CCN(c2ccc(Nc3cccnc3)nn2)CC1 [F5237-0056] | −0.05 | 0.02 | 1.10 | 0.72 | 3. no effect | 40 | –
11 | O=C(Nc1ccc(Cl)c(C(F)(F)F)c1)N1CCN(c2cc(-n3cccn3)ncn2)CC1 [F5562-0130] | −0.08 | 0.02 | 1.03 | 0.57 | 3. no effect | 40 | –
12 | O=C(Nc1ccc(OC(F)(F)F)cc1)N1CCN(c2cc(N3CCCC3)ncn2)CC1 [F5669-0378] | −0.06 | −0.02 | 1.00 | 0.71 | 3. no effect | 40 | –
13 | O=C(Nc1ccc2c(c1)OCO2)Nc1nc(-c2ccccn2)cs1 [F5772-8284] | −0.01 | 0.37 | 0.37 | 0.52 | 2. possible | 400 | –
14 | Cn1cccc1C(CNC(=O)Nc1ccc(Cl)c(Cl)c1)N1CCOCC1 (stereo not shown) [F5833-1551] | −0.03 | 0.01 | 0.99 | 0.56 | 3. no effect | 40 | –
15 | O=C(Nc1ccc(Cl)c(Cl)c1)N(Cc1ccsc1)Cc1ccco1 [F5854-2599] | −0.06 | 0.01 | 1.01 | 0.54 | 3. no effect | 40 | –
16 | O=C(Nc1ccc(Cl)c(Cl)c1)Nc1ccc2cn[nH]c2c1 [F5882-3050] | 0.25 | 0.39 | 0.02 | 0.07 | 1. confirmed | 400 | Ox MIC in presence of compound (multiple strains of MRSA; [18]): <0.25 µg/mL; Ox MIC in presence of compound (multiple strains of MRSA; [19]): <0.5 µg/mL; Ox MIC in presence of compound (multiple strains of MRSA; [20]): <0.25 µg/mL; Ox MIC in presence of compound (multiple strains of MRSA; [21]): 32 µg/mL; Ox MIC in presence of compound (multiple strains of MRSA; [22]): <0.25 µg/mL; Ox MIC in presence of compound (multiple strains of MRSA; [23]): <0.06 µg/mL; Ox MIC in presence of compound (multiple strains of MRSA; [24]): <2 µg/mL; Ox MIC in presence of compound (multiple strains of MRSA; [25]): <0.13 µg/mL; Ox MIC in presence of compound (multiple strains of MRSA; [26]): <0.13 µg/mL; Ox MIC in presence of compound (multiple strains of MRSA; [27]): <0.5 µg/mL; Ox MIC in presence of compound (multiple strains of MRSA; [28]): 0.5 µg/mL
